Experimental data from US10980813B2, “Antifungal composition” (SEED RESEARCH INSTITUTE CO., LTD., priority 2017, dated 2021).
In brackets after ≈: the same amount, converted by molar mass.

Assays:
Experiment in all cases: Antifungal activity, MIC by disc (diffusion) method
[1] = tested on: Saccharomyces; format: cell-based; conditions: YMG agar, 24 hr at 28° C., read-out: MIC (minimum inhibitory concentration) Saccharomyces
Procedure: (§1) Measurement Method of Antifungal Activity in Various Compounds
(§2) The minimum inhibitory concentration (MIC) was measured by a disc method (diffusion method). The disc method is one kind of the diffusion method, and is a method in which filter paper (disc) impregnated with an antifungal substance at a given concentration is placed on an agar medium (test plate) coated with a test bacterium and cultivated. The disc absorbs water in the medium, diffuses the antifungal substance and forms a given concentration gradient. As a result, the test bacterium forms a growth inhibition zone (circle) in the periphery of the disc, and the level of sensitivity to the antifungal substance is determined from the diameter of the inhibition circle.
(§3) Using the aforementioned method, MIC of various compounds was measured.
(§4) i: In a 100 mL flask, 20 mL of YMG or Mueller Hinton medium is produced.
(§5) ii: A loopful of the test bacterium is dissolved in the medium.
(§6) iii: The medium is cultured at 200 rpm for 24 hr in a rotary shaker set to 28° C.
(§7) i: In a 300 mL flask, 100 mL of YMG or Mueller Hinton agar medium (low melting point agar) is produced.
(§8) ii: After cooling to 37° C.-40° C., preculture medium (1 mL) is added and the mixture is agitated.
(§9) iii: The mixture is dispensed to a square petri dish (size: 100*150*17 mm) by 20 mL each.
(§10) iv: The dish is stood at room temperature until the agar is solidified.
(§11) i: The compound is diluted in ½ dilution series in 10 stages (timely changed according to compound), 50 μL of solution/pulp at each dilution stage is produced, the organic solvent is dried at room temperature and placed on a test plate.
(§12) ii: After culturing T. rubrum for 48 hr and other test bacteria for 24 hr at 28° C. in an incubator, the size of the inhibition circle was measured.
(§13) The medium composition for culture which was used for the aforementioned preculture is shown below.
(§14) [Medium Compositions for Preculture and Test Plate]
(§15) <<YMG Medium>>: For Fungus
(§16) Agar, powder 0.8% * added only when producing test plate

[2] = tested on: T. mentagrophytes; format: cell-based; conditions: Trichophyton mentagrophytes, YMG agar, 24 hr at 28° C., read-out: MIC (minimum inhibitory concentration) T. mentagrophytes
Procedure: as §1, §2, §3, §4, §5, §6, §7, §8, §9, §10, §11, §12, §13, §14, §15, §16

[3] = tested on: T. rubrum; format: cell-based; conditions: Trichophyton rubrum, YMG agar, 48 hr at 28° C., read-out: MIC (minimum inhibitory concentration) T. rubrum
Procedure: as §1, §2, §3, §4, §5, §6, §7, §8, §9, §10, §11, §12, §13, §14, §15, §16

[4] = tested on: A. fumigatus; format: cell-based; conditions: Aspergillus fumigatus, YMG agar, 24 hr at 28° C., read-out: MIC (minimum inhibitory concentration) A. fumigatus
Procedure: as §1, §2, §3, §4, §5, §6, §7, §8, §9, §10, §11, §12, §13, §14, §15, §16

[5] = tested on: C. parapsilosis; format: cell-based, Candida parapsilosis; conditions: Lodderomyces parapsilosis, YMG agar, 24 hr at 28° C., read-out: MIC (minimum inhibitory concentration) C. parapsilosis
Procedure: as §1, §2, §3, §4, §5, §6, §7, §8, §9, §10, §11, §12, §13, §14, §15, §16

SMILES	MIC [1] [µg/mL]	MIC [2] [µg/mL]	MIC [3] [µg/mL]	MIC [4] [µg/mL]	MIC [5] [µg/mL]
O=S1(=O)N=C(c2ccccc2)CO1 [I-3c]	8 (≈ 40.6 µM)	2 (≈ 10.1 µM)	2 (≈ 10.1 µM)	8 (≈ 40.6 µM)	8 (≈ 40.6 µM)
CC1=NS(=O)(=O)Oc2ccccc21 [I-1j]	8 (≈ 40.6 µM)	2 (≈ 10.1 µM)	2 (≈ 10.1 µM)	8 (≈ 40.6 µM)	8 (≈ 40.6 µM)
O=S1(=O)N=Cc2cccn21 [I-5b]	16 (≈ 102 µM)	4 (≈ 25.6 µM)	4 (≈ 25.6 µM)	16 (≈ 102 µM)	16 (≈ 102 µM)
O=S1(=O)N=Cc2cc(Cl)ccc2O1 [I-1b]	4 (≈ 18.4 µM)	1 (≈ 4.59 µM)	1 (≈ 4.59 µM)	4 (≈ 18.4 µM)	4 (≈ 18.4 µM)
CC1=NS(=O)(=O)N=C1 [I-4a]	8 (≈ 60.5 µM)	2 (≈ 15.1 µM)	2 (≈ 15.1 µM)	8 (≈ 60.5 µM)	8 (≈ 60.5 µM)

Results, then the molecule that gave them:

MIC [1] [µg/mL]	MIC [2] [µg/mL]	MIC [3] [µg/mL]	MIC [4] [µg/mL]	MIC [5] [µg/mL]	SMILES
4 (≈ 17.8 µM)	1 (≈ 4.46 µM)	1 (≈ 4.46 µM)	4 (≈ 17.8 µM)	4 (≈ 17.8 µM)	N#Cc1ccc2c(c1)C1ON1S(=O)(=O)O2 (centres unmarked) [II-1g]
4 (≈ 14.9 µM)	1 (≈ 3.73 µM)	1 (≈ 3.73 µM)	4 (≈ 14.9 µM)	4 (≈ 14.9 µM)	O=S1(=O)Oc2c(Cl)cc(Cl)cc2C2ON21 (centres unmarked) [II-1h]
4 (≈ 16.4 µM)	1 (≈ 4.1 µM)	1 (≈ 4.1 µM)	4 (≈ 16.4 µM)	4 (≈ 16.4 µM)	O=[N+]([O-])c1ccc2c(c1)C1ON1S(=O)(=O)O2 (centres unmarked) [II-1e]
16 (≈ 92.9 µM)	4 (≈ 23.2 µM)	4 (≈ 23.2 µM)	16 (≈ 92.9 µM)	16 (≈ 92.9 µM)	O=S1(=O)N2OC2c2cccn21 (centres unmarked) [II-5b]
8 (≈ 24.7 µM)	2 (≈ 6.16 µM)	2 (≈ 6.16 µM)	8 (≈ 24.7 µM)	8 (≈ 24.7 µM)	CCCCCCCCN1CC2(c3ccccc3)ON2S1(=O)=O (centres unmarked) [II-3e]
4 (≈ 17.1 µM)	1 (≈ 4.28 µM)	1 (≈ 4.28 µM)	4 (≈ 17.1 µM)	4 (≈ 17.1 µM)	O=S1(=O)Oc2ccc(Cl)cc2C2ON21 (centres unmarked) [II-1b]
8 (≈ 34.9 µM)	2 (≈ 8.73 µM)	2 (≈ 8.73 µM)	8 (≈ 34.9 µM)	8 (≈ 34.9 µM)	COc1ccc2c(c1)C1ON1S(=O)(=O)O2 (centres unmarked) [II-1d]
4 (≈ 14.4 µM)	1 (≈ 3.59 µM)	1 (≈ 3.59 µM)	4 (≈ 14.4 µM)	4 (≈ 14.4 µM)	O=[N+]([O-])c1cc(Cl)cc2c1OS(=O)(=O)N1OC21 (centres unmarked) [II-1i]
